Data as given in patent US5648369A, “Aminoalkylpyridine compounds which are useful as anitconvulsant drugs, excitatory amino acid inhibitors and NMDA sigma receptor antagonists” (priority 1991, dated 1997).

What was measured:
MES and scMet seizures = assay: Anticonvulsant screening, ASP classification (MES and scMet tests) in mice, i.p.; type: in vivo, mouse; conditions: for minimal effective dose: ip, i.p. mouse, read-out: ASP Group Classification; for ASP classification (Table 8): Table 8 comparison, titled MES Test, Rat, p.o.
MK-801 = assay: Radioligand binding, MK-801, [3H]MK-801
Text: (§1) EAAs are known to play important roles in excitatory neurotransmission in partial seizures as discussed earlier. […] Thus, several aminoalkylpyridines of this invention are effective antagonists of NMDA-receptor mediated EAA neurotransmission and function as noncompetitive NMDA antagonists and thus can be used to advantage in epilepsy, stroke and Alzheimer's disease.
(§2) EAAs are known to play important roles in excitatory transmission in partial seizures as discussed earlier. In general, antieptileptic drugs effective against MES seizures alter ionic transport across excitable membranes [Porter, R. J., and Pitlick, W. H., In "Basic and Clinical Pharmacology", 4th Edn., B. G. Katzung, Ed., Appleton and Lange, CA 1989, pp. 287-303]. Based on this rationale, the aminoalkylpyridines may be expected to attenuate EAA neurotransmission. Indeed, evaluation of potential displacement activity of #2 at all inhibitory and excitatory amino acid receptor types and subtypes using appropriate radioligands, indicate that this aminoalkylpyridine inhibits at 10 μM concentration, 49% of the binding of [^3 H]DTG, a ligand highly specific for the σ (sigma) receptor population of the PCP receptors on the NMDA receptor-ionophore complex (Table 6).
(§3) Values are expressed as the percent inhibition of specific binding and […]

PCF = assay: Radioligand binding, PCP, [3H]TCP
Text: as §1, §2, §3

Sigma = assay: Radioligand binding, Sigma, [3H]DTG; conditions: σ receptor population
Text: (§4) EAAs are known to play important roles in excitatory neurotransmission in partial seizures as discussed earlier.
(§5) EAAs are known to play important roles in excitatory transmission in partial seizures as discussed earlier.

[1] = test system: maximal electroshock seizures; assay: Maximal electroshock seizure (MES) test in the rat, p.o.; conditions: for responders at 50 mg/kg / ED50: Rattus norvegicus, po; for responders at 50 mg/kg: read-out: Percent protection at 50 mg/kg dose, p.o., in the MES Test in the rat; for ED50: read-out: ED50 MES
Text: (§7) The Maximal Electroshock Seizure Test (MES): Maximal electroshock seizures are elicited with a 60 Hz alternating current of 50 mA intensity in mice and about 150 mA in rats (5-7 times that necessary to elicit minimal electroshock seizures), delivered for 0.2 sec via corneal electrodes. A drop of 0.9% saline is instilled in the eye prior to application of the electrodes in order to prevent the death of the animal. Abolition of the hind limb tonic extension component of the seizure is defined as protection and results are expressed as number of animals protected/number of animals tested.
This species will be subject of the complete anticonvulsant quantification test evaluation as described above, but after oral (gavage) administration of the candidate compound.
Neurological deficit in rats is examined by the positional sense test and gait and stance test. […] Inability to do so rapidly indicates a neurologic deficit. In the gait and stance test, a neurologic deficit is indicated by a circular or zigzag gait, ataxia, abnormal spread of the legs, abnormal body posture, tremor, hyperactivity, lack of exploratory behavior, somnolence, stupor, or catalepsy.

Adenosine = assay: Radioligand binding, Adenosine; conditions: reference compound, Adenosine
Text: as §1, §2, §3

Glycine = Glycine (Homo sapiens, UniProt Q05586); assay: Radioligand binding, Glycine (excitatory), [3H]glycine; conditions: reference compound, [3H]glycine
Text: as §4, §5

[2] = test system: endogenous L-glutamate release; assay: Ca2+ dependent, K+ evoked release of endogenous L-glutamate in cerebrocortical slices; type: cell-based, guinea pig; conditions: Cavia porcellus, means ± SEM, n = 4
[3] = test system: subcutaneous pentylenetetrazol seizures; assay: Subcutaneous pentylenetetrazol (Metrazole) seizure threshold test (scMet), mice, i.p.; type: in vivo; conditions: Mus musculus, ip
Experimental: (§6) The Subcutaneous Pentylenetetrazol (Metrazole) Seizure Threshold Test (scMet): A 0.5% solution of 85 mg/kg of pentylenetetrazol is administered subcutaneously in the posterior midline. The animal is observed for 30 minutes.

[4] = Rotorod ataxia test (neurotoxicity), mice, i.p.; conditions: mouse, in vivo, ip
Experimental: Neurotoxicity is evaluated in mice by the rotorod ataxia test. The animal is placed on a wooden rod of 11/8" diameter rotating at 6 rpm. Normal mice can remain on a rod rotating at this speed indefinitely.

[5] = test system: maximal electroshock seizures; assay: Maximal electroshock seizure (MES) test, anticonvulsant quantification in mice, i.p.; conditions: for ED50: Mus musculus, ip, read-out: ED50 MES; for P.I. MES (TD50/ED50): mice
Experimental: Screening Methodology to Determine Anticonvulsant Activity: In mice, i.p.: All compounds are solubilized in 0.5% methylcellulose. […] The compounds are administered intraperitoneally in a volume of 0.01 ml/gm to male Carworth Farms #1 mice weighing about 20 gm. All compounds are tested at least at three dose levels (30, 100 an 300 mg/kg) at 30 minutes and 4 hours after their administration.
as §7
Anticonvulsant Quantification in Mice, i.p.: The ED50 values are determined in the MES, scMet and rotorod ataxia test.

[6] = test system: subcutaneous pentylenetetrazol seizures; assay: Subcutaneous pentylenetetrazol seizure threshold test (scMet), rat, p.o.; type: in vivo, rat (Sprague-Dawley); conditions: po
Experimental: as §6

in vivo = assay: in vivo; design: species or system rat (Sprague-Dawley); conditions: rat, po
Text: Inability to do so rapidly indicates a neurologic deficit.

Kainate = assay: Radioligand binding, Kainate, [3H]KA; conditions: reference compound, [3H]KA
Text: as §1, §2, §3

Row | SMILES | minimal effective dose (MES and scMet seizures) [mg/kg] | activity at the [3H]MK-801-binding receptor sites (in words) (MK-801) | activity at the [3H]TCP-binding receptor sites / PCP receptors (in words) (PCF) | inhibition of the binding of [3H]DTG (in words) (Sigma) | responders at 50 mg/kg [1] [%] | further results
1 | CC(Nc1ccc(Cl)cc1)c1cccnc1 (centres unmarked) [Compound 9, 1-(4-Chloroanilino)-1-(3-pyridyl)-ethan] | < 100 | no activity | no activity | inhibit selectively | 25 to 75 | –
2 | Fc1ccc(NCc2ccncc2)cc1 [Compound 14] | < 100 | – | – | – | 25 | –
3 | CNC(=O)[C@H]1O[C@@H](n2cnc3c(N)ncnc32)[C@H](O)[C@@H]1O [MECA, reference compound] | – | – | – | – | – | Ki (Adenosine): 0.0395 µM
4 | CC(Nc1ccc(Cl)c(Cl)c1)c1ccncc1 (centres unmarked) [Compound 1, 1-(3,4-Dicloroanilino)-1-(4-pyridyl)-ethan] | < 100 | no activity | no activity | inhibit selectively | – | –
5 | COc1ccc(NCc2ccncc2)cc1 [Compound 16, 1-(4-Methoxyanilino)-1-(4-pyridyl)-methan] | < 100 | – | – | – | – | –
6 | Clc1ccc(NCc2ccncc2)cc1Cl [Compound 10, 1-(3,4-Dichloroanilino)-1-(4-pyridyl)-methan] | < 100 | no activity | no activity | inhibit selectively | 50 | –
7 | C[C@@H](N)C(=O)O [D-Alanine, reference compound] | – | – | – | – | – | Ki (Glycine): 4.9 µM
8 | Clc1ccc(N2N=NCC2c2ccncc2)cc1 (centres unmarked) [ADD17014, reference compound] | – | – | – | – | – | activity at 50 µM ([2]; 50 μM (K+), 30 mM K+, P < 0.001 vs K+ alone): 136 ± 6%; activity at 50 µM ([2]; 50 μM (basal)): 101 ± 9%; activity at 100 µM ([2]; 100 μM (K+), 30 mM K+, P < 0.001 vs K+ alone): 122 ± 5%; activity at 100 µM ([2]; 100 μM (basal)): 109 ± 4%
9 | Cc1ccc(NC(C)c2ccncc2)cc1 (centres unmarked) [Compound 6, 1-(4-Methylanilino)-1-(4-pyridyl)-ethan] | < 100 | no activity | no activity | inhibit selectively | – | ASP classification (Table 8) (MES and scMet seizures): I (They demonstrate anticonvulsant activity in either the MES test or the scMet test, or both at doses of 100 mg/kg or 30 mg/kg without signs of neurological deficit)
10 | COc1ccc(N2N=NCC2c2ccncc2)cc1 (centres unmarked) [4-OCH3, reference compound] | – | – | – | – | – | ASP classification (Table 8) (MES and scMet seizures): III (Those failing to demonstrate anticonvulsant activity at doses up to 300 mg/kg are considered inactive)
11 | COc1ccc(NC(C)c2ccncc2)cc1 (centres unmarked) [Compound 7, 1-(4-Methoxyanilino)-1-(4-pyridyl)-ethan] | < 100 | – | – | – | 25 to 50 | ASP classification (Table 8) (MES and scMet seizures): I (They demonstrate anticonvulsant activity in either the MES test or the scMet test, or both at doses of 100 mg/kg or 30 mg/kg without signs of neurological deficit); protection at 50 mg/kg (Table 8) ([1]; 50 mg/kg, rat, p.o., MES): 25-50%
12 | CC(Nc1cccc(Cl)c1)c1ccncc1 (centres unmarked) [Compound 3, 1-(3-Chloroanilino)-1-(4-pyridyl)-ethan] | < 100 | no activity | no activity | inhibit selectively | 50 to 75 | ED50 [3]: > 250 mg/kg; TD50 [4]: > 500 mg/kg; ED50 [5]: 95.5 mg/kg; P.I. MES (TD50/ED50) [5]: > 5.24
13 | Clc1ccc(NCc2ccncc2)cc1 [Compound 11, 1-(4-Chloroanilino)-1-(4-pyridyl)-methan] | < 100 | no activity | no activity | inhibit selectively | 50 to 100 | ED50 [3]: 107 mg/kg; TD50 ([4]; mice, i.p., read-out: TD50 (rotorod)): < 225 mg/kg; ED50 [6]: > 250 mg/kg; TD50 (in vivo): > 500 mg/kg; ED50 [1]: 39.1 mg/kg; P.I. MES (TD50/ED50) ([1]; rat, p.o.): > 12.8; ED50 [5]: 68.4 mg/kg; P.I. MES (TD50/ED50) [5]: < 3.3
14 | c1ccc(C2(N3CCCCC3)CCCCC2)cc1 [PCP, phencyclidine, reference compound] | – | – | – | – | – | Ki (PCF; reference compound, [3H]TCP): 0.0623 µM
15 | Cc1ccc(NCc2ccncc2)cc1 [Compound 15, 1-(4-Methylanilino)-1-(4-pyridyl)-methan] | < 100 | – | – | – | – | –
16 | CC(Nc1ccc(Br)cc1)c1ccncc1 (centres unmarked) [Compound 4, 1-(4-Bromoanilino)-1-(4-pyridyl)-ethan] | < 100 | no activity | no activity | inhibit selectively | 75 to 100 | ED50 [3]: > 200 mg/kg; TD50 [4]: > 200 mg/kg; ED50 [6]: > 250 mg/kg; TD50 (in vivo): > 500 mg/kg; ED50 [1]: 20.9 mg/kg; P.I. MES (TD50/ED50) ([1]; rat, p.o.): > 23.93; ED50 [5]: 62.7 mg/kg; P.I. MES (TD50/ED50) [5]: > 3.19
17 | C=C(C)[C@H]1CN[C@H](C(=O)O)[C@H]1CC(=O)O [Kainic Acid, reference compound] | – | – | – | – | – | Ki (Kainate): 0.0249 µM
18 | Brc1ccc(NCc2ccncc2)cc1 [Compound 13, 1-(4-Bromoanilino)-1-(4-pyridyl)-methan] | < 100 | no activity | no activity | inhibit selectively | > 50 | –
19 | CC(Nc1ccccc1)c1ccncc1 (centres unmarked) [Compound 8, 1-(Anilino)-1-(4-pyridyl)-ethan] | < 100 | no activity | no activity | inhibit selectively | 50 to 75 | ED50 [3]: < 300 mg/kg; TD50 [4]: 161 mg/kg; ED50 [6]: > 250 mg/kg; TD50 (in vivo): > 500 mg/kg; ED50 [1]: 48.4 mg/kg; P.I. MES (TD50/ED50) ([1]; rat, p.o.): > 10.33; ED50 [5]: 81.7 mg/kg; P.I. MES (TD50/ED50) [5]: 1.97
20 | Cc1ccc(N2N=NCC2c2ccncc2)cc1 (centres unmarked) [4-CH3, reference compound] | – | – | – | – | – | ASP classification (Table 8) (MES and scMet seizures): II (Class II compounds show anticonvulsant activity at doses greater than 100 mg/kg or show activity at 100 mg/kg which is not reinforced by similar activity at 300 mg/kg)
21 | Clc1cccc(NCc2ccncc2)c1 [Compound 12, 1-(3-Chloroanilino)-1-(4-pyridyl)-methan] | < 100 | no activity | no activity | inhibit selectively | > 50 | –
22 | C[C@]12N[C@H](Cc3ccccc31)c1ccccc12 [MK-801, reference compound] | – | – | – | – | – | Ki (MK-801; reference compound, [3H]MK-801): 0.0043 µM
23 | CC(Nc1ccc(F)cc1)c1ccncc1 (centres unmarked) [Compound 5, 1-(4-Fluoroanilino)-1-(4-pyridyl)-ethan] | < 100 | no activity | no activity | inhibit selectively | 75 to 100 | ED50 [3]: > 80 mg/kg; TD50 [4]: 141 mg/kg; ED50 [6]: > 250 mg/kg; TD50 (in vivo): > 500 mg/kg; ED50 [1]: 81.1 mg/kg; P.I. MES (TD50/ED50) ([1]; rat, p.o.): > 6.17; ED50 [5]: 57.4 mg/kg; P.I. MES (TD50/ED50) [5]: 2.46
24 | c1ccc(N2N=NCC2c2ccncc2)cc1 (centres unmarked) [H, reference compound] | – | – | – | – | – | ASP classification (Table 8) (MES and scMet seizures): II (Class II compounds show anticonvulsant activity at doses greater than 100 mg/kg or show activity at 100 mg/kg which is not reinforced by similar activity at 300 mg/kg)
